{"source": "patent EP1285971B1", "about": "“Methods for the phenotypic and genotypic assessment of the drug sensitivity of HIV integrase variants” (Tibotec Pharmaceuticals Ltd., priority 2001, dated 2003)", "system": "pHXB2D control", "experiment": "Antiviral experiment with control clone, transfected directly without recombination", "format": "cell-based, HIV", "conditions": "no recombination; for fold change: fold change in EC50", "procedure": "Recombinant virus was produced by co-transfection by electroporation of the SmaI-linearized IN-deletion construct and the integrase amplicon into MT4 cells or MT4 cells equipped with an LTR driven reporter gene construct. Production of recombinant virus was evaluated by scoring the cytopathogenic effect (CPE) that is induced by HIV-infection of MT4 cells or by the LTR-driven reporter signal induced by HIV infection in MT4 reporter cells. Green fluorescent protein was used as the reporter signal. Viruses are harvested and titrated at maximum CPE. For recombination the deletion construct pSV40HXB2D-ΔIN was used. Recombination experiments were performed with amplicon from wildtype HIV IIIB and NL4.3, and patient sample 146514 generated by both primer sets. For each recombination 2 µg amplicon was co-transfected with 10 µg SmaI-digested pSV40HXB2D-ΔIN by electroporation into MT4-LTR-EGFP cells. Virus stocks were titrated and tested in an antiviral experiment on a reference panel including nucleoside reverse transcriptase inhibitors (NRTI), non- nucleoside reverse transcriptase inhibitors (NNRTI), protein inhibitor (PR), entry and integrase (IN) inhibitors (Table 2). Recombination was checked by nucleic acid sequence analysis using protocols known to the person skilled in the art. Sequencing primers which can be used are In_seq1F (SEQ ID NO 17), In_seq2F (SEQ ID NO 18), In_seq3F (SEQ ID NO 19), IN_seq1R (SEQ ID NO 20), IN_seq2R (SEQ ID NO 21), and IN_seq3R (SEQ ID NO 22). The recombinant virus was evaluated in an anti-viral assay with a panel of reference compounds including nucleoside RT inhibitors (NRTI) Zidovudine (AZT) Lamivudine (3TC), Didanosine (DDI), non-nucleoside RT inhibitors (NNRTI) Nevirapine (NVP), 4-[[6-amino-5-bromo-2-[(4-cyanophenyl)amino]-4-pyrimidinyl]oxy]-3,5-dimethyl-benzonitrile also referred to as compound 1, 4-[[6-amino-5-bromo-2-[(4-cyanophenyl)amino]-4-pyrimidinyl]oxy]-3,5-dimethyl-Benzonitrile, also referred to as compound 2 protease inhibitors (PR) Saquinavir (SQV), Amprenavir (APV), Indinavir (IDV), [[…]-3-[[(4-aminophenyl)sulfonyl](2-methylpropyl)amino]-2-hydroxy-1-(phenylmethyl)-propyl]-, (3R,3aS,6aR)-hexahydrofuro[2,3-b]furan-3-yl ester carbamic acid also referred to as compound 3, entry-inhibitors (Entry)(AMD3100, DS5000, ATA), and integrase inhibitor (IN) 2-(1-methylethyloxy)-α,γ dioxo-5-(phenylmethyl)-benzenebutanoic acid also referred to as compound 4. […] AVE means antiviral experiment. Type means the type of inhibitor investigated. The fold change is the fold change in EC50. WT III B means that a portion of the wild type IIIB strain has been amplified and used in the antiviral experiment, including transfection and generation of recombinant virus. NL 4-3 means the integrase gene of this laboratory strain has been amplified and subsequently used for the antiviral experiment. […] No recombination has been effected using this HIV clone. pHXB2D has been used directly for transfection and antiviral experiment. Primer set 3 consist of outer primers 5'EGINT3 (SEQ ID NO 4) and 3'EGINT10 (SEQ ID NO 11), and inner primers 5'EGINT4 (SEQ ID NO 5) and 3'EGINT6 (SEQ ID NO 7). Primer set 4 consist of outer primers 5'EGINT3 (SEQ ID NO 4) and 3'EGINT10 (SEQ ID NO 11), and inner primers 5'EGINT5 […] and 3'EGINT6 (SEQ ID NO 7). Other suitable integrase inhibitors include L-731,988, diketo-acids and S-1360.", "key": {"[1]": {"conditions": "Human immunodeficiency virus 1, AVE 6, pHXB2D control"}}, "data": [{"molecule": "O=c1[nH]cnc2c1ncn2[C@H]1CC[C@@H](CO)O1", "note": "[DDI, Didanosine]", "values": [{"measurement": "fold change", "setting": "AVE 6, pHXB2D control", "result": "1,0"}, {"measurement": "EC50", "setting": "[1]", "result": 4820, "unit": "nM"}]}, {"molecule": "Cc1ccnc2c1NC(=O)c1cccnc1N2C1CC1", "note": "[NVP, Nevirapine]", "values": [{"measurement": "fold change", "setting": "AVE 6, pHXB2D control", "result": "1,0"}, {"measurement": "EC50", "setting": "[1]", "result": 86.3, "unit": "nM"}]}, {"molecule": "CC(C)c1nc(CN(C)C(=O)N[C@H](C(=O)N[C@@H](Cc2ccccc2)C[C@H](O)[C@H](Cc2ccccc2)NC(=O)OCc2cncs2)C(C)C)cs1", "note": "[RTV, ritonavir]", "values": [{"measurement": "fold change", "setting": "AVE 6, pHXB2D control", "result": "1,0"}, {"measurement": "EC50", "setting": "[1]", "result": 148, "unit": "nM"}]}, {"molecule": "Cc1cc(C#N)cc(C)c1Oc1nc(Nc2ccc(C#N)cc2)nc(N)c1Br", "note": "[Compound 1, 4-[[6-amino-5-bromo-2-[(4-cyanophenyl)amino]-4-pyrimidinyl]oxy]-3,5-dimethyl-benzonitrile]", "values": [{"measurement": "EC50", "setting": "AVE 6, pHXB2D control", "result": 1, "unit": "nM"}, {"measurement": "fold change", "setting": "AVE 6, pHXB2D control", "result": "1,0"}]}, {"molecule": "CC(C)CN(C[C@@H](O)[C@H](Cc1ccccc1)NC(=O)O[C@H]1CCOC1)S(=O)(=O)c1ccc(N)cc1", "note": "[APV, Amprenavir]", "values": [{"measurement": "fold change", "setting": "AVE 6, pHXB2D control", "result": "1,0"}, {"measurement": "EC50", "setting": "[1]", "result": 83.8, "unit": "nM"}]}, {"molecule": "CC(C)Oc1ccc(Cc2ccccc2)cc1C(=O)CC(=O)C(=O)O", "note": "[Compound 4, 2-(1-methylethyloxy)-α,γ dioxo-5-(phenylmethyl)-benzenebutanoic acid]", "values": [{"measurement": "fold change", "setting": "AVE 6, pHXB2D control", "result": "1,0"}, {"measurement": "EC50", "setting": "[1]", "result": 276, "unit": "nM"}]}, {"molecule": "CC(C)(C)NC(=O)[C@@H]1C[C@@H]2CCCC[C@@H]2CN1C[C@@H](O)[C@H](Cc1ccccc1)NC(=O)[C@H](CC(N)=O)NC(=O)c1ccc2ccccc2n1", "note": "[SQV, Saquinavir]", "values": [{"measurement": "fold change", "setting": "AVE 6, pHXB2D control", "result": "1,0"}, {"measurement": "EC50", "setting": "[1]", "result": 19.8, "unit": "nM"}]}, {"molecule": "Cc1cn([C@H]2C[C@H](N=[N+]=[N-])[C@@H](CO)O2)c(=O)[nH]c1=O", "note": "[AZT, Zidovudine]", "values": [{"measurement": "fold change", "setting": "AVE 6, pHXB2D control", "result": "1,0"}, {"measurement": "EC50", "setting": "[1]", "result": 168, "unit": "nM"}]}, {"molecule": "c1cc(CN2CCCNCCNCCCNCC2)ccc1CN1CCCNCCNCCCNCC1", "note": "[AMD3100]", "values": [{"measurement": "fold change", "setting": "AVE 6, pHXB2D control", "result": "1,0"}, {"measurement": "EC50", "setting": "[1]", "result": 55.6, "unit": "nM"}]}, {"molecule": "O=C(O)C1=CC(=C(c2ccc(O)c(C(=O)O)c2)c2ccc(O)c(C(=O)O)c2)C=CC1=O", "note": "[ATA]", "values": [{"measurement": "EC50", "setting": "AVE 6, pHXB2D control", "result": 2070, "unit": "nM"}, {"measurement": "fold change", "setting": "AVE 6, pHXB2D control", "result": "1,0"}]}, {"molecule": "CC(C)(C)NC(=O)[C@@H]1CN(Cc2cccnc2)CCN1C[C@@H](O)C[C@@H](Cc1ccccc1)C(=O)N[C@H]1c2ccccc2C[C@H]1O", "note": "[IDV, Indinavir]", "values": [{"measurement": "fold change", "setting": "AVE 6, pHXB2D control", "result": "1,0"}, {"measurement": "EC50", "setting": "[1]", "result": 43.9, "unit": "nM"}]}, {"molecule": "Nc1ccn([C@@H]2CS[C@H](CO)O2)c(=O)n1", "note": "[Compound 3TC, Lamivudine]", "values": [{"measurement": "fold change", "setting": "AVE 6, pHXB2D control", "result": "1,0"}, {"measurement": "EC50", "setting": "[1]", "result": 1380, "unit": "nM"}]}, {"molecule": "Cc1cc(C#N)cc(C)c1Oc1nc(Nc2ccc(C#N)cc2)nc(N)c1Br", "note": "[Compound 2, 4-[[6-amino-5-bromo-2-[(4-cyanophenyl)amino]-4-pyrimidinyl]oxy]-3,5-dimethyl-Benzonitrile]", "values": [{"measurement": "EC50", "setting": "AVE 6, pHXB2D control", "result": 3.1, "unit": "nM"}, {"measurement": "fold change", "setting": "AVE 6, pHXB2D control", "result": "1,0"}]}]}
